Values after ≈ are worked out from the molar mass of the structure shown. “Also recorded” adds a separate entry of the source. Where two headings read alike, the source gives them in different places.
Key:
[1] = Cytotoxicity, CellTiter Glo (ATP levels) and Presto Blue (reducing equivalents); type: cell-based; conditions: CellTiter Glo, Presto Blue, dose response
Procedure: (§1) The reporter gene assays were used to assess off-target activity with IRF30Luc (RIG-1) or NFKB (TLR4); CellTiter Glo (ATP levels) and Presto Blue (reducing equivalents) were used to assess cytotoxicity; all assays were performed in dose response mode. […] The inventors recently began using human PBMCs to assess cellular potency in a more physiologically relevant context.

[2] = system: TLR4 pathway; experiment: Reporter gene assay NFKB (TLR4); type: cell-based; conditions: at concentrations above 25 μM
Procedure: (§2) CETSA was also used to confirm that the compounds are binding to cGAS in cells; THP-1 cells are used for this analysis. Compounds were tested in dose response mode by incubating with cells for 1.5 hours at 37° C., followed by pelleting and re-suspending in PBS, heating to 51.5° C. for 3 min and cooling to room temp. Cells were then lysed, debris, including denatured cGAS, was pelleted and the supernatant was analyzed for soluble cGAS by Western Blot using anti-cGAS primary Ab (Cell Signaling). Band intensity was analyzed using Image J software. Stimulation with cGAMP directly activates STING, circumventing cGAS; this was used to determine if compounds had effects on downstream components of cGAS/STING signaling. The IFN-6 ELISA was used as the primary measure of cellular potency and selectivity (Table 3) and used the reporter gene assays for assessing off-target activity with other pattern recognition receptors.
as §1

[3] = Metabolic stability in mouse hepatocytes; type: in vitro ADME; conditions: read-out: Mouse MS Stability t1/2
Procedure: (§3) ADME studies: Compound A and the compounds of the disclosure were tested for aqueous solubility (KSOL), metabolic stability (human and mouse […]) and permeability (Caco-2 and/or MDR1-MDCK cells) to provide an initial indication of oral bioavailability.
(§4) The favorable physicochemical properties are reflected in promising results in in vitro ADME tests. […] Metabolic stability, which was routinely measured with mouse and human hepatocytes, is outstanding, with t, greater than 2 hours for all of the compounds of the disclosure in which it has been measured. Cell permeability was measured using MDCK cells expressing human MDR1 (P-glycoprotein) to assess passive permeability as well as active transport out of the cell. […] Numerous compounds in Table 1 meet these permeability criteria, which is consistent with their design for TPSA <140 Å^2 and increased lipophilicity.
The MDCK-MDR1 permeability A ->B is shown in Table 2 below, where A represents 5-10 cm/s×10^−6; B represents 1-5 cm/s×10^−6; and C represents <1 cm/ss×10^−6. The metabolic stability half time, in both mouse and human hepatocytes, is also shown in Table 2 below, where A′ represents 100-200 minutes; B′ represents 200-300 minutes; and C′ represents >300 minutes.

[4] = biological target: T1, cGAS (Homo sapiens, UniProt Q8N884); experiment: Cellular thermal shift assay (CETSA) in THP-1 cells; type: cell-based; conditions: heat treatment 51.5 °C
T1 sequence (Q8N884 whole entry): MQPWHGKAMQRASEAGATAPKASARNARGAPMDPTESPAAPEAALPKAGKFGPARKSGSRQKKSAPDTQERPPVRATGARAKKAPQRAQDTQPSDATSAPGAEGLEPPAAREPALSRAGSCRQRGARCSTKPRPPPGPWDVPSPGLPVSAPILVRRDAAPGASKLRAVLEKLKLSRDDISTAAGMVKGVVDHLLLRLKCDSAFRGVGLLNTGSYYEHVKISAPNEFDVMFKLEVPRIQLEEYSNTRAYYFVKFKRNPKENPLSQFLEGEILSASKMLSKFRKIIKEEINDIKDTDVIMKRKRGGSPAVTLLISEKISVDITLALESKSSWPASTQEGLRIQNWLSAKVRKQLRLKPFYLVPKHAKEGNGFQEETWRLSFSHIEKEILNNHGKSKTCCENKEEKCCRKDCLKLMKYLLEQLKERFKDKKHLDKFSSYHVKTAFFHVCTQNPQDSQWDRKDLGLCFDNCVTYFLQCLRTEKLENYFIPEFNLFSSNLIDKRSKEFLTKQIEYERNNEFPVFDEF
Procedure: Panel A is an image of a western blot of the stabilization measure; panel B is a bar graph of the stabilization measure. Heat treatment was conducted at 51.5 ° C.
as §2

[5] = biological target: T1, cGAS; experiment: Transcreener cGAS enzymatic assay (FP); type: biochemical
Summary of the method: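 Human cGAS (30 nm) inhibition, 60 min reactions, FP read-out, standard conditions 100 μM ATP and GTP plus 62.5 nM bp ISD. Also run at 1 mM ATP and GTP (physiological), with 200 μM MnCl2, and with mouse cGAS under standard conditions; IC50 reported.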

[6] = system: MDR1 (P-glycoprotein); experiment: MDCK-MDR1 permeability A→B; type: in vitro ADME, Canine; conditions: dog; MDCK cells expressing human MDR1, A→B; read-out: MDCK-MDR Permeability A→B
Summary of the method: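 Permeability measured apical-to-basolateral in MDCK cells expressing human MDR1, reported as binned ranges in cm/s×10^−6. Metabolic stability determined as half-life in mouse and human hepatocytes, reported as binned ranges in minutes.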

[7] = system: IFNβ production in THP-1 cells; experiment: IFNβ ELISA in THP-1 cells; type: cell-based, human
Summary of the method: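 THP-1 cells stimulated with dsDNA or cGAMP (STING activation bypassing cGAS) in the presence of compound; IFNβ secreted into medium quantified by ELISA. IC50 values reported in potency bins.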

[8] = Kinetic aqueous solubility (KSOL) in PBS, pH 7.4; type: physicochemical; conditions: aqueous buffer, kinetic from dmso stock
Procedure: as §3, §4

For `Cc1nc(N2C[C@@H](CC(=O)Nc3ccc(-c4ccccc4)cc3)C[C@H]2C(=O)O)c2oc3ccccc3c2n1` [Compound 5, (2S,4R)-4-(2-([1,1′-biphenyl]-4-ylamino)-2-oxoethyl)-1-(2-methylbenzofuro[3,2-d]pyrimidin-4-yl)pyrrolidine-2-carboxylic acid], the Concentration showing cytotoxicity [1] was “above 25 μM”, the “Off-target activity with the TLR4 pathway” value [2] was “some off-target activity” and the half-life [3] was > 300 min. The “Stabilization of cGAS in cells (CETSA)” value [4] was “dose dependent stabilization; also recorded: intracellular target engagement”, the IC50 ([5]; high ATP and GTP (1 mM) to mimic physiological conditions, read-out: IC50 FP Physiological) was 500 to 1000 nM and the IC50 ([5]; standard conditions: 100 μM ATP and GTP, 62.5 nM bp ISD, 60 minute reactions, read-out: IC50 FP Standard) was 50 to 100 nM. For the same molecule, the Papp A→B [6] was 5 to 10 ×10⁻⁶ cm/s, the IC50 ([7]; Homo sapiens, THP-1 cells) was < 1000 nM and the “Cellular IC50 relative to biochemical IC50” value ([7]; cellular assays vs cGAS enzymatic assay at 1 mM ATP/GTP) was “essentially identical”. It also gave a solubility kinetic [8] of 8 µM (≈ 4.05 µg/mL).

Source: US20240174684A1, “INHIBITORS OF cGAS ACTIVITY AS THERAPEUTIC AGENTS” (BELLBROOK LABS, LLC, priority 2021, published 2024)
